Tests used:
lipoamide = compound: NC(=O)CCCCC1CCSS1 [lipoamide]; test: thermal stability z-score vs DMSO; higher = more thermally stabilized by treatment; conditions: HeLa, lipoamide concentration 100 µM
Experimental: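 Cellular thermal proteome profiling in HeLa cells. Cells were treated with 100 µM lipoamide for 1 h, with or without 1 mM arsenate for a further 1 h, then heated to ten temperatures (37-66.3 °C), and soluble protein was quantified by TMT mass spectrometry relative to 0.1% DMSO controls. The thermal stability score (sum of log2 fold changes minus the abundance score) was transformed to a z-score; mean of n = 3 experiments.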

potassium arsenate = compound: O=[As]([O-])(O)O.[K+] [potassium arsenate]; test: as above; conditions: HeLa; arsenate concentration 1 mM
Experimental: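 Cellular thermal proteome profiling in HeLa cells treated with 1 mM arsenate for 1 h (DMSO pretreatment), heated to ten temperatures (37-66.3 °C). Soluble protein was quantified by TMT mass spectrometry relative to DMSO controls; the thermal stability score was transformed to a z-score; mean of n = 3 experiments.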

[1] = arsenate co-treatment: 1 mM arsenate 1 h
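Note: each temperature applied for 3 min, abundance score taken as mean log2 fold change at the two lowest temperatures, z-score obtained by mean subtraction and division by SD.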

UniProt Q9HCU5, sequence (Q9HCU5 whole entry): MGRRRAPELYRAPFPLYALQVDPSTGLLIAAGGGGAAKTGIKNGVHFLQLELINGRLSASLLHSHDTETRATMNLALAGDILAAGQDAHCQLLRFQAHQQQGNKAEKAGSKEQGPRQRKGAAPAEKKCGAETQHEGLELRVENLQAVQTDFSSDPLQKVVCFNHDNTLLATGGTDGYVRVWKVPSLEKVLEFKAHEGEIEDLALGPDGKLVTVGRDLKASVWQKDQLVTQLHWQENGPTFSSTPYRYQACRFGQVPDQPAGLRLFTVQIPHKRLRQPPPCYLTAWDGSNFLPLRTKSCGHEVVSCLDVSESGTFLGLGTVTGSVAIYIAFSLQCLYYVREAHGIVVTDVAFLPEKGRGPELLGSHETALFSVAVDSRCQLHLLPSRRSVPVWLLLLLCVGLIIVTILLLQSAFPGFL
UniProt Q969G5, sequence (Q969G5 whole entry): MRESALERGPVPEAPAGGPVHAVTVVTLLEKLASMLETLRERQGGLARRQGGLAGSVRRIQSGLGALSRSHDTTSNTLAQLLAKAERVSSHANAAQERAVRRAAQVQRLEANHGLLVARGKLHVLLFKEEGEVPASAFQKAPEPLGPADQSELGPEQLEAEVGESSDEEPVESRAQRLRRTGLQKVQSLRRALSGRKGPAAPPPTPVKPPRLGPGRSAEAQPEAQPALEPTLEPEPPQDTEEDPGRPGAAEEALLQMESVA
UniProt Q5H9R7, sequence (Q5H9R7 whole entry): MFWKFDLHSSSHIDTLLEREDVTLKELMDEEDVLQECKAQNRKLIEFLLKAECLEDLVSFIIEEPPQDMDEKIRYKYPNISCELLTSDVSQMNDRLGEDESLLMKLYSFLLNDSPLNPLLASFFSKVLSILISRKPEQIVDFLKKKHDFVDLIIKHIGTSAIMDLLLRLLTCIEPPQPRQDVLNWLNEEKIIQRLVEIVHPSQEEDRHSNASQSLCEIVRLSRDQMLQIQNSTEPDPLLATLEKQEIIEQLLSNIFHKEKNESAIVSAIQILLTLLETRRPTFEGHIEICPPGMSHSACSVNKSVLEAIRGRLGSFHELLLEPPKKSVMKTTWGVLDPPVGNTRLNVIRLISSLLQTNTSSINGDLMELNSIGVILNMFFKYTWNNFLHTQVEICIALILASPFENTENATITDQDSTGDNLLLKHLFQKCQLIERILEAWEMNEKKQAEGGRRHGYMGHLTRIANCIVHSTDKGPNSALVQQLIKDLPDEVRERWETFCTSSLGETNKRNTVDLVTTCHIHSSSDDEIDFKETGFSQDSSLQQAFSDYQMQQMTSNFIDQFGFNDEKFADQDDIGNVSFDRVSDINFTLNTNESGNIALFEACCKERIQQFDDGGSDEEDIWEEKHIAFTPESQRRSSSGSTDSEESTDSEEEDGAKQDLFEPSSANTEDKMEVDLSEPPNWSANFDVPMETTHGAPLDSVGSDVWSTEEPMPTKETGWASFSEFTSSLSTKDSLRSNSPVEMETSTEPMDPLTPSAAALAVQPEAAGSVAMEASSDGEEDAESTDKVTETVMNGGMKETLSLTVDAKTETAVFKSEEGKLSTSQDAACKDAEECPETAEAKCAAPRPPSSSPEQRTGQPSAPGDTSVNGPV
UniProt P30044, sequence (P30044 whole entry): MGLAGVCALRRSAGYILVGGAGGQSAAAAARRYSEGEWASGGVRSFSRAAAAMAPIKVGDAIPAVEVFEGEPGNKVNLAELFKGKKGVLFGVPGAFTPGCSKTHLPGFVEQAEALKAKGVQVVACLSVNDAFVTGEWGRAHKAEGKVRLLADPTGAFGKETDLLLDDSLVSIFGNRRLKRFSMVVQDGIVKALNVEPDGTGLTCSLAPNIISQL
UniProt Q9Y3B1, sequence (Q9Y3B1 whole entry): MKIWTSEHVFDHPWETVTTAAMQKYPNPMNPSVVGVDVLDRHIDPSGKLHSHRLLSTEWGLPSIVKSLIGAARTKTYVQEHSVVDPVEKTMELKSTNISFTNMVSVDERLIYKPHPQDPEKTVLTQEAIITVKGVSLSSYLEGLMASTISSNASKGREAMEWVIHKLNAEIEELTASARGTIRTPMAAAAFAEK
UniProt P54619, sequence (P54619 whole entry): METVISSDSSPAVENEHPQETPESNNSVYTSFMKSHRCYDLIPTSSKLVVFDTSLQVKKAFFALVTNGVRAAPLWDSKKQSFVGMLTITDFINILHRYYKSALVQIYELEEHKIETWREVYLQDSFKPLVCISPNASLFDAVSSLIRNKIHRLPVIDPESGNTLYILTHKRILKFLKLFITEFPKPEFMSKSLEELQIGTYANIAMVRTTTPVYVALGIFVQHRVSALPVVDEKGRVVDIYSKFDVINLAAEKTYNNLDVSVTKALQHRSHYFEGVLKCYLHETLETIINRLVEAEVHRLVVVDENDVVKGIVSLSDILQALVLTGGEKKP
UniProt P48147, sequence (P48147 whole entry): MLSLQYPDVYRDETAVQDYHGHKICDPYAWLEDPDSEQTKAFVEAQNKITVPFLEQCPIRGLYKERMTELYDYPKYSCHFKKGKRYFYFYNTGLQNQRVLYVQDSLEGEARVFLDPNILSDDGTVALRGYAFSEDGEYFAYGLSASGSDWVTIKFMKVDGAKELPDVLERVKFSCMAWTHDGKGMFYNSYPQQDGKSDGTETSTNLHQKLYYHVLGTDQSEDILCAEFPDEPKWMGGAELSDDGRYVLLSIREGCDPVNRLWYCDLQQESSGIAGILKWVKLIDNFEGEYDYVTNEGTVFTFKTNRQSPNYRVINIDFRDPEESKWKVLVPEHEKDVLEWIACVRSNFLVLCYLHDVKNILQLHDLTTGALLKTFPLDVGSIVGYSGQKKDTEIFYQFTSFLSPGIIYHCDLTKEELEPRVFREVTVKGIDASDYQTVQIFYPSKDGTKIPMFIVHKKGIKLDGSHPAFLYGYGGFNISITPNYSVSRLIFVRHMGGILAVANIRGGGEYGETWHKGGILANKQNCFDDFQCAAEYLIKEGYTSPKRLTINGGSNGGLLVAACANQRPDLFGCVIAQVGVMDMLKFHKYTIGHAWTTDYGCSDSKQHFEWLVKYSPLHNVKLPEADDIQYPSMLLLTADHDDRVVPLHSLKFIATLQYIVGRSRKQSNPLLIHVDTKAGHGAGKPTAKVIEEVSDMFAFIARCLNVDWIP
UniProt Q9UPN7, sequence (Q9UPN7 whole entry): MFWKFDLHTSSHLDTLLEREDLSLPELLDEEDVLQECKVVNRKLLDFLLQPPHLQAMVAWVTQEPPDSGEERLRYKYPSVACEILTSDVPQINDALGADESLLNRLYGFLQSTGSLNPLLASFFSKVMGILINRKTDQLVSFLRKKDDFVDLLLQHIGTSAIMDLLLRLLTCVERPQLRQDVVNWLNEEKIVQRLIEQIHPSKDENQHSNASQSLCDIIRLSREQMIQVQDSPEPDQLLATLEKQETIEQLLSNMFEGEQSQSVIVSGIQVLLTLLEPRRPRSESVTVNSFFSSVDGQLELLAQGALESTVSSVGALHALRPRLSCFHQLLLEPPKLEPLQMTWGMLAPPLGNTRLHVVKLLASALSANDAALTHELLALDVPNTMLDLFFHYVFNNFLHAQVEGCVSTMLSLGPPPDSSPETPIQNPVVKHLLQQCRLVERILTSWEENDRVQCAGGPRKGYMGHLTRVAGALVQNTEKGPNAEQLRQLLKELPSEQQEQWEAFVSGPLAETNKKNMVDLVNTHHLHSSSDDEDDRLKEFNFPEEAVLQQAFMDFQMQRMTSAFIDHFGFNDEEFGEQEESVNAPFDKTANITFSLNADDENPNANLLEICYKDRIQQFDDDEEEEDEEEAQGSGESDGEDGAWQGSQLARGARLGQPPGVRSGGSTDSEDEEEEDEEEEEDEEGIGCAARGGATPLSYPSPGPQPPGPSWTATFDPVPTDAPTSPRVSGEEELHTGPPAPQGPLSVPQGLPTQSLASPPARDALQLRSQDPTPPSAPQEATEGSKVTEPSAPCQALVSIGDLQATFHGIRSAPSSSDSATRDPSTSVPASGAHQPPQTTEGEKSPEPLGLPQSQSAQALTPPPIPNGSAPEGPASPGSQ
UniProt P32119, sequence (P32119 whole entry): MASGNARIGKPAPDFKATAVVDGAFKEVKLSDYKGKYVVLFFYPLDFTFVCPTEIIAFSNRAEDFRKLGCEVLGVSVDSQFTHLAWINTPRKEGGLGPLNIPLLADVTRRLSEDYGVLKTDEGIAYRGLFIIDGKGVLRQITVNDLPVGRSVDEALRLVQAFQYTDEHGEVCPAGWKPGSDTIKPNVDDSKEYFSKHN
UniProt P30048, sequence (P30048 whole entry): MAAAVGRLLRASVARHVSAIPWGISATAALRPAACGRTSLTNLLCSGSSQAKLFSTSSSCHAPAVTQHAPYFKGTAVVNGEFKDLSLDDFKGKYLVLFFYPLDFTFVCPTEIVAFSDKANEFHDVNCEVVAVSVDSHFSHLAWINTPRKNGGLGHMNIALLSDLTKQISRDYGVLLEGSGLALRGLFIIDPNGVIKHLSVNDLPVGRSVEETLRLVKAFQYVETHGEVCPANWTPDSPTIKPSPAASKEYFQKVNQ
UniProt Q92733, sequence (Q92733 whole entry): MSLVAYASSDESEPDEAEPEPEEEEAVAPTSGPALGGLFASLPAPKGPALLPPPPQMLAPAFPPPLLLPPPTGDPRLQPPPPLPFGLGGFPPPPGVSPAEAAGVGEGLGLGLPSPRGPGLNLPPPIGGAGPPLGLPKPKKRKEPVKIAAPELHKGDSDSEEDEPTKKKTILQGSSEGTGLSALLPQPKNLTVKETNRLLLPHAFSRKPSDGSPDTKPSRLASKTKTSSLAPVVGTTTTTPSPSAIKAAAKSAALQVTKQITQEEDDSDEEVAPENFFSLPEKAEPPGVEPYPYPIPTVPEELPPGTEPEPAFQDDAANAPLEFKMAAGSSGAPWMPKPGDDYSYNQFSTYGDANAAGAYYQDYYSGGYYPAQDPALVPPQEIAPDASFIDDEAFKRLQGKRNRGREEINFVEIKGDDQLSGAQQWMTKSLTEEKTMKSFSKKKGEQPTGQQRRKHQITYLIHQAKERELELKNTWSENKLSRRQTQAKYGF

Row | Target | thermal stability z-score (lipoamide; [1]) | thermal stability z-score (lipoamide; arsenate co-treatment: none) | thermal stability z-score (potassium arsenate)
1 | PPP6C (UniProt O00743) | 0.512 | 0.089 | -0.409
2 | PPP6R1 (UniProt Q9UPN7) | -0.476 | -0.635 | -0.671
3 | PPP6R2 (UniProt O75170) | -0.348 | 0.143 | -0.937
4 | PPP6R3 (UniProt Q5H9R7) | 1.14 | 0.331 | 0.262
5 | PPT1 (UniProt P50897) | -0.494 | -0.324 | -0.00594
6 | PPTC7 (UniProt Q8NI37) | -0.248 | -0.287 | 0.222
7 | PPWD1 (UniProt Q96BP3) | -0.218 | -0.513 | -0.656
8 | PQBP1 (UniProt O60828) | 0.533 | -0.261 | -0.0247
9 | PRC1 (UniProt O43663) | -0.144 | -0.106 | -0.601
10 | PRCC (UniProt Q92733) | 0.409 | -0.0293 | 0.465
11 | PRCP (UniProt P42785) | -0.242 | -0.33 | 0.42
12 | PRDX2 (UniProt P32119) | 0.0679 | 0.162 | -0.431
13 | PRDX3 (UniProt P30048) | 0.429 | 0.812 | -0.448
14 | PRDX4 (UniProt Q13162) | 0.155 | 0.76 | 0.674
15 | PRDX5 (UniProt P30044) | -0.275 | 0.138 | -0.761
16 | PRDX6 (UniProt P30041) | 0.00439 | 0.281 | 0.144
17 | PREB (UniProt Q9HCU5) | -0.337 | -0.353 | -0.0461
18 | PRELID1 (UniProt Q9Y255) | 0.0933 | -0.2 | -0.054

Row | Target | thermal stability z-score (lipoamide; [1]) | thermal stability z-score (lipoamide; arsenate co-treatment: none) | thermal stability z-score (potassium arsenate)
19 | PRELID3B (UniProt Q9Y3B1) | -0.72 | -0.844 | -0.684
20 | PREP (UniProt P48147) | -0.299 | -0.268 | 0.347
21 | PREPL (UniProt Q4J6C6) | 0.836 | 0.783 | -0.177
22 | PREX1 (UniProt Q8TCU6) | 0.02 | 0.0645 | -0.0577
23 | PRG4 (UniProt Q92954) | -2.2 | -2.18 | 0.248
24 | PRIM1 (UniProt P49642) | -0.361 | -0.125 | -0.439
25 | PRIM2 (UniProt P49643) | 0.176 | -0.165 | -0.113
26 | PRKAA1 (UniProt Q13131) | -0.417 | -0.0988 | 0.048
27 | PRKAB1 (UniProt Q9Y478) | -0.236 | 0.539 | -0.528
28 | PRKACA (UniProt P17612) | 0.104 | 0.151 | 0.535
29 | PRKACB (UniProt P22694) | -0.58 | -0.36 | 0.18
30 | PRKAG1 (UniProt P54619) | 0.174 | 0.0278 | 0.942
31 | PRKAR1A (UniProt P10644) | -0.101 | 0.167 | -0.065
32 | PRKAR1B (UniProt P31321) | 0.568 | 0.264 | 1.31
33 | PRKAR2A (UniProt P13861) | 0.114 | 0.239 | 0.904
34 | PRKCA (UniProt P17252) | 0.358 | 0.32 | 0.458
35 | PRKCD (UniProt Q05655) | -0.0378 | 0.235 | -0.477
36 | PRKCDBP (UniProt Q969G5) | 1.06 | -0.0261 | 0.331

Reference: the supplement of paper PMC12463676, “Small-molecule dissolution of stress granules by redox modulation benefits ALS models” (Nature Chemical Biology, 2025)
